The NIST ThermoML archive (doi:10.1021/je800110r)
± gives the expanded uncertainty stated by the source.

Conditions: 303.15 K, Liquid, Vibrating tube method

CCCCCCCCCC [decane]
Conditions | mass density [kg/m3]
29181 kPa | 743.5 ± 2.1
29208 kPa | 743.5 ± 2.1
29234 kPa | 743.6 ± 2.1
29258 kPa | 743.5 ± 2.1
29278 kPa | 743.6 ± 2.1
29302 kPa | 743.6 ± 2.1
29320 kPa | 743.5 ± 2.1
29341 kPa | 743.6 ± 2.1
29363 kPa | 743.6 ± 2.1
29384 kPa | 743.6 ± 2.1
29402 kPa | 743.6 ± 2.1
29426 kPa | 743.6 ± 2.1
29444 kPa | 743.7 ± 2.1
29466 kPa | 743.6 ± 2.1
29484 kPa | 743.7 ± 2.1
29502 kPa | 743.7 ± 2.1
29530 kPa | 743.8 ± 2.1
29548 kPa | 743.7 ± 2.1
29575 kPa | 743.7 ± 2.1
29600 kPa | 743.7 ± 2.1
29618 kPa | 743.8 ± 2.1
29640 kPa | 743.8 ± 2.1
29658 kPa | 743.8 ± 2.1
29685 kPa | 743.9 ± 2.1
29703 kPa | 743.8 ± 2.1
29722 kPa | 743.9 ± 2.1
29747 kPa | 743.9 ± 2.1
29774 kPa | 743.9 ± 2.1
29790 kPa | 743.8 ± 2.1
29812 kPa | 743.8 ± 2.1
29828 kPa | 744 ± 2.1
29859 kPa | 743.9 ± 2.1
29883 kPa | 744 ± 2.1
29905 kPa | 744 ± 2.1
29930 kPa | 743.9 ± 2.1
29952 kPa | 744 ± 2.1
29967 kPa | 744 ± 2.1
29987 kPa | 743.9 ± 2.1
30005 kPa | 744 ± 2.1
30023 kPa | 744.1 ± 2.1
30051 kPa | 743.9 ± 2.1
30077 kPa | 744.1 ± 2.1
30099 kPa | 744 ± 2.1
30125 kPa | 744 ± 2.1
30150 kPa | 744.2 ± 2.1
30169 kPa | 744.1 ± 2.1
30198 kPa | 744.2 ± 2.1
30220 kPa | 744.1 ± 2.1
30248 kPa | 744.2 ± 2.1
30267 kPa | 744.2 ± 2.1
30290 kPa | 744.2 ± 2.1
30322 kPa | 744.2 ± 2.1
30348 kPa | 744.3 ± 2.1
30374 kPa | 744.3 ± 2.1
30397 kPa | 744.2 ± 2.1
30420 kPa | 744.3 ± 2.1
30443 kPa | 744.3 ± 2.1
30468 kPa | 744.4 ± 2.1
30491 kPa | 744.4 ± 2.1
30516 kPa | 744.3 ± 2.1
30533 kPa | 744.4 ± 2.1
30553 kPa | 744.4 ± 2.1
30582 kPa | 744.3 ± 2.1
30601 kPa | 744.5 ± 2.1
30621 kPa | 744.4 ± 2.1
30644 kPa | 744.5 ± 2.1
30665 kPa | 744.4 ± 2.1
30695 kPa | 744.5 ± 2.1
30715 kPa | 744.3 ± 2.1
30739 kPa | 744.4 ± 2.1
30762 kPa | 744.5 ± 2.1
30789 kPa | 744.7 ± 2.1
30809 kPa | 744.5 ± 2.1
30833 kPa | 744.5 ± 2.1
30853 kPa | 744.7 ± 2.1
30884 kPa | 744.6 ± 2.1
30908 kPa | 744.6 ± 2.1
30931 kPa | 744.6 ± 2.1
30956 kPa | 744.5 ± 2.1
30980 kPa | 744.6 ± 2.1
31007 kPa | 744.6 ± 2.1
31031 kPa | 744.6 ± 2.1
31062 kPa | 744.8 ± 2.1
31083 kPa | 744.7 ± 2.1
31111 kPa | 744.7 ± 2.1
31134 kPa | 744.6 ± 2.1
31157 kPa | 744.7 ± 2.1
31178 kPa | 744.8 ± 2.1
31212 kPa | 744.7 ± 2.1
31231 kPa | 744.8 ± 2.1
31252 kPa | 744.9 ± 2.1
31271 kPa | 744.8 ± 2.1
31293 kPa | 744.9 ± 2.1
31311 kPa | 744.9 ± 2.1
31327 kPa | 744.8 ± 2.1
31348 kPa | 744.9 ± 2.1
31363 kPa | 744.9 ± 2.1
31381 kPa | 744.9 ± 2.1
31400 kPa | 744.9 ± 2.1
31425 kPa | 744.9 ± 2.1
31446 kPa | 745 ± 2.1
31468 kPa | 745 ± 2.1
31490 kPa | 744.9 ± 2.1
31515 kPa | 744.9 ± 2.1
31540 kPa | 745 ± 2.1
31565 kPa | 745 ± 2.1
31588 kPa | 745 ± 2.1
31610 kPa | 745.1 ± 2.1
31640 kPa | 745.2 ± 2.1
31660 kPa | 745.1 ± 2.1
31688 kPa | 745.1 ± 2.1
31707 kPa | 745.2 ± 2.1
31725 kPa | 745.2 ± 2.1
31754 kPa | 745.1 ± 2.1
31769 kPa | 745.2 ± 2.1
31798 kPa | 745.1 ± 2.1
31817 kPa | 745.2 ± 2.1
31842 kPa | 745.2 ± 2.1
31861 kPa | 745.1 ± 2.1
31887 kPa | 745.1 ± 2.1
31906 kPa | 745.3 ± 2.1
31925 kPa | 745.3 ± 2.1
31950 kPa | 745.3 ± 2.1
31972 kPa | 745.3 ± 2.1
31995 kPa | 745.3 ± 2.1
32014 kPa | 745.3 ± 2.1
32040 kPa | 745.4 ± 2.1
32059 kPa | 745.4 ± 2.1
32079 kPa | 745.4 ± 2.1
32098 kPa | 745.3 ± 2.1
32128 kPa | 745.3 ± 2.1
32150 kPa | 745.4 ± 2.1
32176 kPa | 745.3 ± 2.1
32198 kPa | 745.5 ± 2.1
32228 kPa | 745.4 ± 2.1
32251 kPa | 745.4 ± 2.1
32274 kPa | 745.5 ± 2.1
